The text below walks through data of US20080039496A1, “Method of Modulating Neurite Outgrowth by the use of a Galanin-3 Receptor Antagonist” (priority 2006, published 2008).

Assay [1] concerns Hes5. Kind of assay: qPCR analysis of Hes5 expression in NS-1 cells. The class given is cell-based. The method, then:
NS-1 cells were plated into collagen I-coated 6 well plate (BD BioCoat) at 150,000 cells per well. 48 hr post NGF treatment at 200 ng/mL NS-1 cells were treated with HT-2157 for 2 hr, 4 hr or 24 hr at concentrations as indicated followed by RNA isolation using Ambion's RNAqueous-4PCR kit. Reverse transcription reactions were performed with Taqman reverse transcription reagents (Applied Biosystems). qPCR was performed on a 7900 real-time PCR machine using Optical 96 well reaction plates (Applied Biosystems). Expression levels were normalized to mouse TBP transcript levels.
In general terms: Quantitative PCR measures a nucleic acid by following its amplification.

Assay [2] relates to PC12 sub-clone, Neuroscreen-1 (NS-1) cells. Kind of assay: Neurite outgrowth assay in NS-1 cells (Example 1). The class given is cell-based. Particulars: NS-1 cells with 200 ng/mL NGF, fixed 24 hr post treatment, various concentrations; dose-dependent. The method, then:
PC12 sub-clone, Neuroscreen-1 (NS-1) cells were plated into collagen I-coated 96 well plate (BD BioCoat) at 5,000 cells per well in RPMI complete medium with 200 ng/mL NGF. 48 hr later NS-1 cells were treated with HT-2157 at various concentrations and were subsequently fixed 24 hr post treatment.
(§1) Following fixation, Cellomics's Neurite Outgrowth reagent kit was used to label cells by a primary antibody specific for neurons. The cell nuclei were labeled by Hoechst 33342. Fluorescently labeled cells were then imaged and analyzed using Cellomics's Neurite Outgrowth and Extended Neurite Outgrowth Bioapplications on the ArrayScan HCS Reader. Images for quantitative HCS analysis were collected on the ArrayScan HCS Reader using a 10× or a 20× microscope objective.

Another assay concerns GalR3. Kind of assay: Western blot analysis of GalR3 expression in NS1 cells. Type of assay: cell-based. The note with it: 24 hours after treatment. Here is the method: Cultured NS1 cells were homogenized in RIPA buffer (Upstate Biotechnology) containing proteinase inhibitors (Roche). Protein concentrations were determined using the Biorad DC protein assay kit (Biorad). 20 μg of protein-lysate were separated by SDS poly-acrylamide gel electrophoresis (SDS-PAGE) and blotted onto nylon membranes. Western blots were blocked with 5% non-fat dry milk in Tris-buffered saline containing 0.05% Tween 20 (TBS-T) and the primary antibodies applied at 4° Celsius over night. Blots were probed with horseradish peroxidase (HRP) coupled secondary antibodies at room temperature for 1 h, and developed using the SuperSignal® West Pico Chemiluminescent Substrate (Pierce). We used a polyclonal antibody against GalR3 (Alpha Diagnostics). Blots were normalized to β-actin (Sigma).
Background: In western blotting, separated proteins are transferred to a membrane and probed.

For a further assay, the system named is NGFβ. Nature of the assay: qPCR analysis of NGFβ mRNA in cultured mouse hippocampal neurons. The class given is cell-based. Particulars: 10 μM, vs vehicle. Here is the method:
(§2) C57B1/6 or CD1 mouse embryonic (E17.5) hippocampal neurons were purchased from QBM Cell Science (University of Ottawa, Ontario, Canada). Neurons were cultured on poly-D-lysine coated 96 or 24 well plates in serum free Neurobasal medium supplemented with 2% B27, 500 μM L-glutamine, and 1 mM pyruvate. Cells were plated at a density of 20,000 per well on 96 well plates (for neurite outgrowth assays), and at 100,000 per well on […] (for qPCR analysis). For neurite outgrowth assays, neurons were cultured for 2 days and then stimulated for 24 hours. For gene-expression assays, neurons were grown for 8 days and then stimulated with HT-2157 or Vehicle.
(§3) RNA was isolated from cultured neurons at the indicated timepoint after HT-2157 treatment. Per well, one RNA preparation was performed using the QIAgen RNeasy kit (Qiagen) according to the manufacturer's specifications. cDNA was generated using TaqMan Reverse transcriptase kit (Applied Biosystems). 2 real-time PCR reactions per RNA/cDNA replication were performed using the ABI prism and SDS 2.1 software. ABI assays on demand (Applied Biosystems) were used to test the mRNA levels of BDNF, NGFβ, and Hes5. The average CT value for each cDNA sample was determined. Data was then normalized to TATA binding protein (TBP) and ΔCT values were determined. mRNA levels were normalized to a vehicle (0.2% DMSO) treated control group.

The next assay has as its system NS1 cells. Kind of assay: Neurite outgrowth assay in NS1 cells (Example 2). Type of assay: cell-based. The note with it: 3 μM and 10 μM. The method, then: Neuroscreen 1 (NS1) Cells (Cellomics Inc.) were cultured on collagen type I coated 75 cm^2 plastic flasks (Biocoat, Becton Dickinson) in a humidified incubator at 37° C. in 5% CO2. Cells were cultured in RPMI complete cell culture medium (Cambrex) supplemented with 10% heat-inactivated horse serum (Invitrogen), 5% heat-inactivated fetal bovine serum (Cellgro), and 2 mM L-glutamine (Cambrex). For expansion, the cells were trypsinized and split at 80% confluence. The cell culture media was changed every 2 to 3 days.
NS1 cells were stimulated with nerve growth factor to induce differentiation into a neuronal phenotype. NS1 cells were harvested as if they were being passaged and then counted using a Coulter counter (Becton Dickinson Coulter Z1). Cells were seeded in 96-well collagen I coated plates at a density of 2000 cells per well in volume of 200 μl. RPMI media was supplemented with 200 ng/ml nerve growth factor (NGFβ, Sigma). NS1 cells were incubated for 72 hours to allow differentiation to a neuronal phenotype. NGFβ was then diluted to 50 ng/ml and the cells were treated with siRNA or HT-2157, respectively.
(§4) Neurite outgrowth assays were performed using the Cellomics Arrayscan II Vti HCS scanner. Cells were stained using the HitKit™ HCS reagent kit (Cellomics) according to the manufactures specifications. The assay is based on immunofluorescence using an antibody that has been validated to specifically label both neurites and neuronal cell bodies. Briefly, cells were fixed in 3.7% formaldehyde and nuclei stained with Hoechst dye. Cells were then washed in neurite outgrowth buffer and neurites stained with Cellomics' proprietary primary antibody for neurite outgrowth high content screening. After 1 hour of incubation with the primary antibody, the cells were washed again and then incubated with fluorescently labeled secondary antibody solution for 1 hour. Antibody-stained 96-well plates were store at 4° C. in the dark until scanning. Plates were scanned using Cellomics ArrayScan II Vti HCS scanner. The neurite outgrowth assay uses two channels to carry out the scan. Channel 1 detects the Hoechst Dye and is used by the software to identify cells and for automated focusing. Channel 2 detects the FITC fluorescence of the secondary antibody and is used by the software to calculate all data generated in reference to neurites.

Assay [3] has as its system cryopreserved mouse hippocampal neurons. Kind of assay: Neurite outgrowth assay in cryopreserved mouse hippocampal neurons (Example 1). Type of assay: cell-based. The note with it: fixed 48 hr post treatment, various concentrations. The method, then:
The cryopreserved mouse hippocampal neurons were plated into poly-L-lysine-coated 96 well plate (BD BioCoat) at 35,000 cells per well in Neurobasal/B27 medium (Invitrogen). 24 hr later the neurons were treated with HT-2157 at various concentrations and were subsequently fixed 48 hr post treatment.
as §1

The subject of another assay is 5-HT. Particulars: Rowley et al. Br J Pharmacol 2005, P127; cited from earlier work.
The test system of assay [4] is Hes5. Kind of assay: qPCR analysis of Hes5 mRNA in cultured mouse hippocampal neurons. The class given is cell-based. More on the design: dose or concentration left out as unconfirmed. The note with it: vs vehicle. The method, then: as §2, §3
The subject of another assay is 5-HT transmission. Particulars: Rowley et al. Br J Pharmacol 2005, P125; cited from earlier work.
The test system of the next assay is BDNF. Nature of the assay: qPCR analysis of BDNF mRNA in cultured mouse hippocampal neurons. Type of assay: cell-based. The note with it: 10 μM, vs vehicle. Here is the method:
as §2, §3

Assay [5] deals with cultured mouse hippocampal neurons. Nature of the assay: Neurite outgrowth assay in cultured mouse hippocampal neurons (Example 2). The class given is cell-based. The note with it: 100 ng/ml for 24 hours. The method, then: as §2, §4

Regarding `O=C1C(=Nc2cccc(C(F)(F)F)c2)c2ccccc2N1c1ccccc1` [HT-2157], the “mRNA levels of Hes5” value with Hes5 [1] (NS1 cells, 2 hours and 4 hours after treatment with 3 or 10 μM, compared to vehicle) is given as “reduced”. For the same molecule, the “Hes5 mRNA” value in the assay with Hes5 [1] (NS1 cells, 24 hours after treatment) is “returned to baseline levels”. In the assay on Hes5 [1] (NS-1 cells, treatment at 2 hr and 4 hr, time- and dose-dependent), the Hes5 expression entry is on record as “down-regulated”. In assay [2], the neurite branch point result is given as “increase”, the neurite count entry was “increase” and the neurite length entry is reported as “increase”. Besides, the “Expression of GalR3” value with GalR3 is “not affected”. For the same molecule, in the assay with NGFβ, the “NGFβ mRNA levels” value is given as “significantly increased”. Also, in the assay on NS1 cells, the “average neurite length per cell” value is given as “increase”, the “number of neurite branch points per cell” value is listed as “increase”, the “number of neurites per cell (neurite count)” value is reported as “increase” and the “total neurite length per cell” value is recorded as “increase”. The neurite length result in assay [3] is reported as “significantly increased”. Besides, in the assay on 5-HT, the “extracellular levels of 5-HT in various brain regions” value is “increase”. The “Hes5 mRNA levels” value in the assay on Hes5 [4] is “significantly reduced”. For the same molecule, in the assay on 5-HT transmission, the “inhibitory effect of Galanin on 5-HT transmission” value was “antagonize”. Also, in the assay on BDNF, the “BDNF mRNA levels” value is “significantly increased”.

Take “NGFβ: nerve growth factor β, neurotrophin (Sigma)”: in assay [5], the branch points entry is given as “increased”, the neurite length result was “increased” and the “number of neurites per cell” value is “increased”.
